From patent publication US20180192601A1, “Composition and Process for Producing Plants Using Anthers of Jatropha Species” (Reliance Industries Limited, priority 2017, published 2018)

Legend:
Format in all cases: cell-based, Jatropha Curcas
anthers of Jatropha = test: Callus induction (callus formation) from anthers on callus induction composition
Protocol: The flower bud of about 2.5 mm were selected for excision of anthers. The flower buds were blot dried with several layers of sterile filter papers to remove excess moisture.
The anthers were excised from unopened flower buds in the laminar air flow (sterile hood) under aseptic conditions.
About 10 to 12 anthers were inoculated into culture tubes comprising the composition of the present disclosure for callus induction. The inoculated culture tubes were incubated in dark at a temperature of about 25±1° C. for a period ranging from about 25 days to 30 days. The culture tubes were replenished with the composition every three weeks for high frequency induction of callus. […]

[1] = test system: matured embryoids or small plantlets of Jatropha; test: Embryo germination and rooting of seedling
Protocol: The matured embryoids with the photoperiod of 16 hrs light and 8 hrs dark or small plantlets were transferred to the composition of the present disclosure and incubated at temperature ranging from about 25° C. to 28° C. for period of about 25 days to 30 days, for germination, for proliferation of roots and further elongation of shoots.
Table 4 illustrates the effect of different concentrations of IBA individually and in combination of with various concentrations of phloroglucinol and GA3 on embryo germination and rooting of seedling. Among the tested concentrations, IBA-0.1 mg/l, phloroglucinol—0.5 mg/l; Gibberellic acid-0.5 mg/l observed to be effective in producing more number of roots (6 roots/shoot) in 80% of the cultures; employing the composition comprising 100 ml of MS macro elements (10× concentration), about 25 ml of MS micro elements (100× concentration) about 10 ml of MS vitamins (200× concentration); citric aicd—40 mg/l; PVP—250 mg/l; Ascorbic acid—55 mg/l; myo inositol—100 mg/L; sucrose 20 g/L. Phytagel 1.5 g/l.

[2] = test system: embryogenic calli of Jatropha anthers; test: Plant regeneration from embryogenic calli of Jatropha anthers
Protocol: The calli of size ranging from about 0.5 cm to 1.0 cm (breadth) were divided into small pieces and inoculated in the culture tubes comprising the composition of the present disclosure for induction of somatic embryogenesis.
The culture tubes showing the developed somatic embryoids were transferred to composition of the present disclosure for somatic embryo maturation and incubated in light culture room for about 16 hours under photoperiod (provided by cool while fluorescent lamp) and under dark for about 8 hours at a temperature of about 25±1° C. This process is continued until somatic embryos get matured and small shoots are visible.
Regeneration of embryogenic calli or embryoids was stimulated and maintained on various combinations of MSB media. Regenerated shoots were transferred to rooting medium for root development.
Table 3 illustrates the effect of different concentration of IBA individually and in combination with BAP and Kinetin of different concentrations on plant regeneration from embryogenic calli of Jatropha anthers.

With `O=C(O)COc1ccc(Cl)cc1Cl` [2,4-D, 2,4-dichloro phenoxy acetic acid] the “Callus formation (%)” value (anthers of Jatropha; 2,4-D 0.5 mg/L) was 2%, the “Callus formation (%)” value (anthers of Jatropha; 2,4-D 1 mg/L) was 2% and the “Callus formation (%)” value (anthers of Jatropha; 2,4-D 2 mg/L) was 10%. For the same compound, the “Callus formation (%)” value (anthers of Jatropha; 2,4-D 3 mg/L) was 20%, the “Callus formation (%)” value (anthers of Jatropha; 2,4-D 4 mg/L) was 35% and the “Callus formation (%)” value (anthers of Jatropha; 2,4-D 5 mg/L) was 45%.
indole butyric acid [IBA] was tested, and the “% of Embryos Germinated” value ([1]; IBA 0.1 mg/L) was 0.0%, the No. of roots/shoot ([1]; IBA 0.1 mg/L) was 0 roots/shoot and the “% of Embryos Germinated” value ([1]; IBA 0.2 mg/L) was 0.0%. The No. of roots/shoot ([1]; IBA 0.2 mg/L) was 0 roots/shoot, the “% of Embryos Germinated” value ([1]; IBA 1.0 mg/L) was 0.0% and the No. of roots/shoot ([1]; IBA 1.0 mg/L) was 0 roots/shoot. The “% of Embryos Germinated” value ([1]; IBA 2.0 mg/L) was 0.0%, the No. of roots/shoot ([1]; IBA 2.0 mg/L) was 0 roots/shoot and the “% of Embryos Germinated” value ([1]; IBA 5.0 mg/L) was 0.0%. The No. of roots/shoot ([1]; IBA 5.0 mg/L) was 0 roots/shoot, the “% of cultures showed regeneration” value ([2]; IBA 0.1 mg/L) was 0.0% and the “No of Plants/explant” value ([2]; IBA 0.1 mg/L) was 0 Plants/explant. The “% of cultures showed regeneration” value ([2]; IBA 0.2 mg/L) was 0.0%, the “No of Plants/explant” value ([2]; IBA 0.2 mg/L) was 0 Plants/explant and the “% of cultures showed regeneration” value ([2]; IBA 1.0 mg/L) was 0.0%. The “No of Plants/explant” value ([2]; IBA 1.0 mg/L) was 0 Plants/explant, the “% of cultures showed regeneration” value ([2]; IBA 2.0 mg/L) was 0.0% and the “No of Plants/explant” value ([2]; IBA 2.0 mg/L) was 0 Plants/explant. For the same compound, the “% of cultures showed regeneration” value ([2]; IBA 5.0 mg/L) was 0.0% and the “No of Plants/explant” value ([2]; IBA 5.0 mg/L) was 0 Plants/explant.
